Patent US20260115250A1, “METHODS OF TREATING AGE-RELATED MACULAR DEGENERATION” (Character Biosciences, Inc., priority 2022, published 2026)
Each block holds one compound with its values, some of them ahead of it. Ends that are not written are not given here. Peptide text beside a SMILES is read from it.

What was measured:
ARPE-19 cells = assay: ARPE-19 cell lysis (Sytox Green); type: cell-based, human; conditions: 10 μM peptide, 2 h
Method: These figures illustrate ARPE-19 cell lysis. ARPE-19 cells were grown in 96-well plates to 75-85% confluence. Peptides at 10 mM were diluted in serum-free DMEM:F12 media into a 20 μM working solution (a 2× solution). Sytox Green was prepared in serum-free DMEM:F12 at a 1 μM working solution (a 2× solution). Equivalent volumes of the peptide and Sytox Green solutions were added to empty 96-well plates and mixed gently. Final peptide concentration was 10 μM. ARPE-19 cells (˜80% confluent in 96-well plates) were washed with DPBS and then incubated in 100 μL of peptide/Sytox Green mixture for 2 h at 37° C. Cells were fixed in 4% paraformaldehyde solution in DPBS and then incubated in 10 μM Hoechst solution for 10 min, washed, and imaged on a Yokogawa CQ1 high-content imager. CellPathfinder software was used to count live/dead cells in 4 fields of view at 20× magnification. Percent (%) lysis was calculated by dividing the number of Sytox Green+ nuclei by the total number of Hoechst+ nuclei.
ARPE-19 cells were grown in 96-well plates to 75-85% confluence. Peptides at 10 mM were diluted in serum-free DMEM: F12 media to solutions between […]. Sytox Green was prepared in serum-free DMEM: F12 media at a 1 μM working solution. Equivalent volumes of the peptide and Sytox Green solutions were added to empty 96-well plates and mixed gently. Final peptide concentration was 3.16-100 μM. ARPE-19 cells (˜80% confluent in 96-well plates) were washed with DPBS and then incubated in 100 μL of peptide/Sytox Green mixture for 2 h at 37° C. Cells were fixed in 4% paraformaldehyde solution in DPBS and then incubated in 10 μM Hoechst solution for 10 min, washed, and imaged on a Yokogawa CQ1 high-content imager. CellPathfinder software was used to count live/dead cells in 4 fields of view at 20× magnification. Percent (%) lysis was calculated by dividing the number of Sytox Green+ nuclei by the total number of Hoechst+ nuclei. Non-linear regression was used to calculate EC50 values.

C57BL/6J mice = assay: tolerability testing in mice after intravitreal injection (H&E histopathology); type: in vivo, mouse; conditions: IVT, 520 μM, seven days
Excerpt: Seven days following IVT injection, eyes were harvested and prepared for hematoxylin and eosin staining. A blinded veterinarian performed histopathological analysis of tissue slices to determine whether the peptides induced inflammation or retinal disruption.

LDLR [1] = molecular target: T1, LDLR (Homo sapiens, UniProt P01130); assay: LDLR binding (SPR), high surfactant preparation
Procedure, shortened: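 Multi-cycle kinetics fitted 1:1: peptide flowed at 30 μL/sec for 120 seconds over immobilised LDLR (amine coupling, CM5, 1000 RU) in running buffer HBS-P+ plus 1 mM CaCl2. Five concentrations per peptide, 1:3 serial from 5 μM; surface regenerated between cycles with 50 mM NaOH/100 mM EDTA.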

LDLR [2] = molecular target: T1, LDLR; assay: lipid-dependent LDLR binding (SPR), single concentration; conditions: 1 μM peptide with or without 25 μM DMPC
Method: Peptides were diluted in 1×HBS-N buffer with 1 mM CaCl2 to a final concentration of 1 μM and incubated with or without 25 μM DMPC for 1 hour at RT to form lipid complexes. Each peptide was tested in duplicate. LDLR was diluted to 10 μg/mL in 10 mM acetate buffer pH 4.5 and was immobilized (˜400RU) on a CM5 chip via amine coupling utilizing 1×HBS-P+ buffer with 1 mM CaCl2. Test peptides (with or without DMPC) were exposed to immobilized LDLR at a flow rate of […] for 120 seconds in HBS-N with 1 mM CaCl2. Between cycles the surface was regenerated with 3, 30 second injections of 10 mM NaOH and 100 mM EDTA. Data are plotted as max RU values, averaged from three separate runs.

[3] = DMPC solubility assay, 0.5 mM DMPC (turbidity reduction); type: biochemical; conditions: FIGS. 2A-2D and 3A-3C
Method: In this example, peptide stocks were diluted to 200 μM in H2O (a 2× solution) and 50 μL of peptide solution was transferred in triplicate into 96-well plates. A one mM solution of 1,2-dimyristoyl-sn-glycero-3-phosphocholine (DMPC) in H2O was prepared, and using a multichannel pipet, 50 μL DMPC solution was rapidly added to the plate. Peptide and lipid solutions were incubated at room temperature for 15 minutes with a final concentration of 100 μM peptides and 0.5 mM DMPC. After 15 minutes, absorbance was read on a plate reader at 405 nm. […] Data are presented as mean+SD over two runs.
In these experiments, DMPC solubility titration curves were generated. Peptide stocks were diluted to 200 μM in H2O (a 2× solution) and serially diluted in H2O over 4 concentrations, then 50 μL of peptide solutions were distributed in triplicate into 96-well plates. A 1 mM solution of 1,2-dimyristoyl-sn-glycero-3-phosphocholine (DMPC) in H2O was prepared, and using a multichannel pipet, 50 μL DMPC solution was rapidly added to the plate. Peptide and lipid solutions were incubated at room temperature for 15 minutes with final concentrations of 3.16-100 μM peptides and 0.5 mM DMPC. After 15 minutes, absorbance was read on a plate reader at 405 nm. […] Data are presented as mean+SD over two runs. Non-linear regression was used to calculate EC50 values.

[4] = peptide binding to non-oxidized and oxidized lipids (SPR); conditions: immobilized peptide; RU normalized to DMPC
Method: FIGS. 25A-25O show peptide binding activity to non-oxidized and oxidized lipids via SPR for indicated peptides. Peptides were reconstituted to 50 μg/mL in 10 mM acetate buffer, pH 4.5 and immobilized to ˜200 RU on a CM5 chip via amine coupling. Non-oxidized lipids (DMPC & POPC) and oxidized lipids (POVPC & KOdiA-PC) were diluted to 100 µM in HBS-EP running buffer and exposed to the chip for binding (n=3) at a flow rate of […] for 120 seconds. The surface was regenerated with 20% EtOH. T-001 served as a positive control and T-031 served as a negative control on each chip. For each peptide, the RU response for all lipids was normalized to the DMPC RU values.

T1 sequence (P01130 22-860): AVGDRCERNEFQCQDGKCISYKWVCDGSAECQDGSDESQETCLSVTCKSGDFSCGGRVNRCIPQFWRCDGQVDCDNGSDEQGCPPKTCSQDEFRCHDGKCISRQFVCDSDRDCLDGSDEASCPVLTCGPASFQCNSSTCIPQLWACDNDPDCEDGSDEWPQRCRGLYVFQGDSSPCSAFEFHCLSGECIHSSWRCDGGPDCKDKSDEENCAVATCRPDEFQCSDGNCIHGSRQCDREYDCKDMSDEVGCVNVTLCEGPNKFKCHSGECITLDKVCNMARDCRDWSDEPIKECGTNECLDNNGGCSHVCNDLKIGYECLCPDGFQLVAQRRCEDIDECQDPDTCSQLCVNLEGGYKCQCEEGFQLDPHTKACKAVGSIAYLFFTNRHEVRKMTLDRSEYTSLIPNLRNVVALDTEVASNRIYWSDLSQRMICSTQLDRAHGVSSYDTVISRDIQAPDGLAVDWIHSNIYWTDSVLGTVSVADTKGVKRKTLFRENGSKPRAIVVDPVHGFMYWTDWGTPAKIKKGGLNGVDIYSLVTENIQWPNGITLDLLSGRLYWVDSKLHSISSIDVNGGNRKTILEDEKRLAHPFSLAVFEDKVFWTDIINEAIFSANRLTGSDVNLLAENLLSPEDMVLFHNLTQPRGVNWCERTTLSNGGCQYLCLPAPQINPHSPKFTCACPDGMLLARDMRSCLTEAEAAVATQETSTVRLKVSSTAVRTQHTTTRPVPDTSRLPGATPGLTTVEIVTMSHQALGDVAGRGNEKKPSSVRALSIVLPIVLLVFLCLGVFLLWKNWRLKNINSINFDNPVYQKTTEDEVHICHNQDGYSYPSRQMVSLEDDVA

Compound: CC(C)C[C@H](NC(=O)[C@H](CC(C)C)NC(=O)[C@H](CCCNC(=N)N)NC(=O)[C@H](CCCCN)NC(=O)[C@H](CCCNC(=N)N)NC(=O)[C@H](CC(C)C)NC(=O)[C@H](CCCCN)NC(=O)[C@H](CCCNC(=N)N)NC(=O)[C@H](CC(C)C)NC(=O)[C@@H](N)Cc1c[nH]cn1)C(=O)N[C@@H](CCCNC(=N)N)C(=O)N[C@@H](CC(=O)O)C(=O)N[C@@H](Cc1c[nH]c2ccccc12)C(=O)N[C@@H](Cc1ccccc1)C(=O)N[C@@H](CCCCN)C(=O)N[C@@H](C)C(=O)N[C@@H](Cc1ccccc1)C(=O)N[C@@H](Cc1ccc(O)cc1)C(=O)N[C@@H](CC(=O)O)C(=O)N[C@@H](CCCCN)C(=O)N[C@H](C(=O)N[C@@H](C)C(=O)N[C@@H](CCC(=O)O)C(=O)N[C@@H](CCCCN)C(=O)N[C@@H](Cc1ccccc1)C(=O)N[C@@H](CCCCN)C(=O)N[C@@H](CCC(=O)O)C(=O)N[C@@H](C)C(=O)N[C@@H](Cc1ccccc1)C(=O)O)C(C)C [T-021] (H-HLRKLRKRLLRDWFKAFYDKVAEKFKEAF-OH)
ARPE-19 cell lysis (ARPE-19 cells): induce cell lysis

Compound: CC(C)C[C@H](NC(=O)[C@H](Cc1ccccc1)NC(=O)[C@H](CCC(=O)O)NC(=O)[C@H](CCC(=O)O)NC(=O)[C@H](CC(C)C)NC(=O)[C@H](CCC(N)=O)NC(=O)[C@H](CCCNC(=N)N)NC(=O)CNC(=O)[C@@H](NC(=O)[C@H](CC(C)C)NC(=O)[C@H](CCCNC(=N)N)NC(=O)[C@H](CC(C)C)NC(=O)[C@H](CC(C)C)NC(=O)[C@H](CCCNC(=N)N)NC(=O)[C@H](CCCCN)NC(=O)[C@H](CCCNC(=N)N)NC(=O)[C@H](CC(C)C)NC(=O)[C@H](CCCCN)NC(=O)[C@H](CCCNC(=N)N)NC(=O)[C@H](CC(C)C)NC(=O)[C@@H](N)Cc1c[nH]cn1)C(C)C)C(=O)O [T-028] (H-HLRKLRKRLLRLVGRQLEEFL-OH)
ARPE-19 cell lysis (ARPE-19 cells): induce cell lysis

Compound: CC[C@H](C)[C@H](NC(=O)CN)C(=O)N[C@@H](CCCCN)C(=O)N[C@@H](CCCCN)C(=O)N[C@@H](Cc1ccccc1)C(=O)N[C@@H](CC(C)C)C(=O)NCC(=O)N[C@@H](CO)C(=O)N[C@H](C(=O)N[C@@H](Cc1c[nH]c2ccccc12)C(=O)N[C@@H](CCCCN)C(=O)N[C@@H](Cc1ccccc1)C(=O)N[C@H](C(=O)N[C@@H](CCCCN)C(=O)N[C@@H](C)C(=O)N[C@@H](Cc1ccccc1)C(=O)N[C@H](C(=O)NCC(=O)O)C(C)C)[C@@H](C)CC)[C@@H](C)CC [T-034, reference compound] (H-GIKKFLGSIWKFIKAFVG-OH)
ARPE-19 cell lysis (ARPE-19 cells): induce cell lysis

Compound: CC(C)C[C@H](NC(=O)[C@H](C)NC(=O)[C@H](CCCNC(=N)N)NC(=O)[C@H](Cc1ccccc1)NC(=O)[C@H](CCCNC(=N)N)NC(=O)[C@H](CCC(=O)O)NC(=O)[C@H](Cc1c[nH]c2ccccc12)NC(=O)[C@H](C)NC(=O)[C@@H](N)CC(=O)O)C(=O)N[C@@H](Cc1ccccc1)C(=O)N[C@@H](CCCCN)C(=O)N[C@@H](CCC(=O)O)C(=O)N[C@@H](CC(C)C)C(=O)N[C@@H](C)C(=O)N[C@@H](CC(=O)O)C(=O)N[C@@H](Cc1ccc(O)cc1)C(=O)N[C@@H](Cc1ccccc1)C(=O)N[C@@H](CCCNC(=N)N)C(=O)O [T-087] (H-DAWERFRALFKELADYFR-OH; N-terminus and C-terminus assumed)
in vivo tolerability (inflammation or retinal disruption) (C57BL/6J mice): well tolerated

Compound: CC[C@H](C)[C@H](NC(=O)[C@H](Cc1ccccc1)NC(=O)[C@H](CCCNC(=N)N)NC(=O)[C@H](CCCCN)NC(=O)[C@H](CC(C)C)NC(=O)[C@H](CCC(=O)O)NC(=O)[C@H](CCCCN)NC(=O)[C@H](CC(C)C)NC(=O)[C@H](C)NC(=O)[C@H](CO)NC(=O)[C@H](CCC(=O)O)NC(=O)[C@H](CC(C)C)NC(=O)[C@H](C)NC(=O)[C@H](CC(=O)O)NC(=O)[C@H](C)NC(=O)CNC(=O)[C@H](CO)NC(=O)[C@@H](N)CCCNC(=N)N)C(=O)N[C@@H](CCCNC(=N)N)C(=O)N[C@@H](CCC(=O)O)C(=O)N[C@@H](Cc1c[nH]c2ccccc12)C(=O)N[C@H](C(=O)O)[C@@H](C)O [T-101] (H-RSGADALESALKELKRFIREWT-OH; N-terminus and C-terminus assumed)
in vivo tolerability (inflammation or retinal disruption) (C57BL/6J mice): well tolerated

Compound: LKDFGERVARALREQFEDLGQSTEELRVRLASHLRKLRKRLLRDADDLQKRLAVYQA [T-114]
in vivo tolerability (inflammation or retinal disruption) (C57BL/6J mice): well tolerated
Kd (LDLR [1]): < 10 µM

lipid-dependent LDLR binding (RU with lipid vs peptide alone) (LDLR [2]): lipid-dependent LDLR binding activity
Compound: T-007: therapeutic peptide (EELRVRLASHLRKLRKRLLRDADDLQKRLAVYQA)
DMPC solubilizing activity [3]: significant activity

lipid-dependent LDLR binding (RU with lipid vs peptide alone) (LDLR [2]): lipid-dependent LDLR binding activity
Compound: T-009: therapeutic peptide (EELRVRLASHLRKLRKRLLRDADDLQKRLAVYQAGAREGAERGLSAIRER)
binding to oxidized lipids relative to DMPC [4]: binding to at least one oxidized lipid that was equivalent or improved to binding against DMPC
DMPC solubilizing activity [3]: significant activity

lipid-dependent LDLR binding (RU with lipid vs peptide alone) (LDLR [2]): lipid-dependent LDLR binding activity
Compound: T-018: therapeutic peptide (HLRKLRKRLLRPPEQAQQIRLQAEAFQARLKSWFE)
DMPC solubilizing activity [3]: significant activity

Compound: T-030: therapeutic peptide (EHLCELIERACRKLVELQEKLSKWLIAELGEGWRQWLHSLKEFLS)
binding to oxidized lipids relative to DMPC [4]: binding to at least one oxidized lipid that was equivalent or improved to binding against DMPC
DMPC solubilizing activity [3]: significant activity

Compound: YKDFGERVERALGRQLEMLGQSTEELRVRLASHLRKLRKRLLRDADDLQKRLAVYQA [T-112]
in vivo tolerability (inflammation or retinal disruption) (C57BL/6J mice): all peptides except T-112 were well tolerated
Kd (LDLR [1]): < 10 µM
